# Source: US6821927B1 (priority 1999, dated 2004)
# Experiment: log P determination by HPLC (EEC directive 79/831 Annex V. A8)
# Assay type: physicochemical
# [1] = HPLC, gradient method, acetonitrile/0.1% aqueous phosphoric acid
Compound,chromatographic logP [1],further results
CON=C(C(=O)N(C)OC)c1ccccc1Oc1ncnc(Oc2ccccc2Cl)c1F [Example 9],3.5,
CON=C(C(=O)N(C)O)c1ccccc1Oc1ncnc(Oc2ccccc2F)c1F [Example 4],2.66,
CON=C(C(=O)N(C)O)c1ccccc1Oc1ncnc(Oc2cc(Cl)ccc2Cl)c1F [Example 6],3.28,
CON=C(C(=O)N(C)O)c1ccccc1Oc1ncnc(Oc2cccc(Cl)c2C)c1F [Example 5],3.29,
"CON=C(C(=O)NO)c1ccccc1Oc1ncnc(Oc2ccccc2Cl)c1F [Example 2, 2-(2-{[6-(2-Chlorophenoxy)-5-fluoro-4-pyrimidinyl]oxy}phenyl)-N-hydroxy-2-(methoxyimino)-acetamide]",,chromatographic logP (HPLC): 2.56
CON=C(C(=O)N(C)O)c1ccccc1Oc1ncnc(Oc2ccccc2C#N)c1F [Example 8],2.43,
"CON=C(C(=O)OC)c1ccccc1Oc1ncnc(Oc2ccccc2Cl)c1F [Example (VI-1), Methyl 2-{2-[6-(2-chlorophenoxy)-5-fluoro-pyrimidin-4-yloxy]-phenyl}-2-methoxyiminoacetate]",,chromatographic logP (HPLC): 3.61
CON=C(C(=O)N(C)O)c1ccccc1Oc1ncnc(Oc2cccc(Cl)c2Cl)c1F [Example 7],3.22,
CON=C(C(=O)N(C)O)c1ccccc1Oc1ncnc(Oc2ccccc2Cl)c1F [Example 1],,logP (HPLC): 2.82
"CON=C(C(=O)N(C)OC(C)=O)c1ccccc1Oc1ncnc(Oc2ccccc2Cl)c1F [Example 3, N-(Acetyloxy)-2-(2-{[6-(2-chlorophenoxy)-5-fluoro-4-pyrimidinyl]oxy}phenyl)-2-(methoxyimino)-N-methylacetamide]",,chromatographic logP (HPLC (gradient method)): 3.52
